4 compounds from BindingDB's records for doi:10.1021/jm050175p (Wyeth Research, 2005) can be followed below.

Tyrosine-protein kinase ABL1, sequence (P00519 whole entry): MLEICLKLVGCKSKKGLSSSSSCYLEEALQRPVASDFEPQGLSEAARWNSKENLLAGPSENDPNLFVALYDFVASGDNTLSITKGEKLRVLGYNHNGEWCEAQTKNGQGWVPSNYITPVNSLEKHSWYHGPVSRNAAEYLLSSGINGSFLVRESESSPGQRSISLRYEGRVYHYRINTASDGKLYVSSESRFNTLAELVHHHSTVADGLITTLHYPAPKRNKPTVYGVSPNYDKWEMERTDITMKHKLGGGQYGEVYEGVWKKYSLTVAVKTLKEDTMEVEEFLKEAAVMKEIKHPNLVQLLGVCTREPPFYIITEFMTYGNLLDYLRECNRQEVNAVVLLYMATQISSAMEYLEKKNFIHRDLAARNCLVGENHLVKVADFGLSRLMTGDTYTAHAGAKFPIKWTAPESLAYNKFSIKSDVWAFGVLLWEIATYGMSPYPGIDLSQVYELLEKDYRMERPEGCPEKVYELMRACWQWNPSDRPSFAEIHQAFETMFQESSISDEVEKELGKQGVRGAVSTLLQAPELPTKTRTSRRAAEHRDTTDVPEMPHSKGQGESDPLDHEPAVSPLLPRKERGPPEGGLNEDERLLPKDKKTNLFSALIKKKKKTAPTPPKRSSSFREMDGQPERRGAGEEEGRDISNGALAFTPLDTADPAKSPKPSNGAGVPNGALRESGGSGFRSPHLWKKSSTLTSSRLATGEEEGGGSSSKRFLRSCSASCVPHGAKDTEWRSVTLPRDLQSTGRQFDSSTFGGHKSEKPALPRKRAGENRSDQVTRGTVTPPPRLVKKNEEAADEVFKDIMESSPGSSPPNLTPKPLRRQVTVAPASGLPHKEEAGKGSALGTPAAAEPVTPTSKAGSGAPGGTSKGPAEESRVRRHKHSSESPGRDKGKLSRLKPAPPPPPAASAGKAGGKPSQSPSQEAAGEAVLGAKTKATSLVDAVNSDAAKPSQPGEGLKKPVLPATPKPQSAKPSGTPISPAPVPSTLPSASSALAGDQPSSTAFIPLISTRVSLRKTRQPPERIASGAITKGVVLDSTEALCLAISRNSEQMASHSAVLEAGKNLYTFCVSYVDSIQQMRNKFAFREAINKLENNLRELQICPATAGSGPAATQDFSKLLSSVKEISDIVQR

This assay addresses Tyrosine-protein kinase ABL1 (Homo sapiens, UniProt P00519). Put plainly: Homogeneous Time-resolved Fluorescence (HTRF) Assay.
For orientation: IC50 means the concentration that gives 50% inhibition. Read a high IC50 as a need for much substance. Compound `CCOc1cc(Nc2c(C#N)cnc3cc(OCC4CCN(C)CC4)c(OC)cc23)c(Cl)cc1Cl` [4-[(2,4-Dichloro-5-ethoxyphenyl)amino]-6-methoxy-7-[(1-methylpiperidin-4-yl)methoxy]quinoline-3-carbonitrile] gave a half-maximal inhibitory concentration (IC50) of 1500 nM.

As to `COc1cc(Nc2c(C#N)cnc3cc(OCC4CCCCN4C)c(OC)cc23)c(Cl)cc1Cl` (centres undefined) [4-[(2,4-dichloro-5-methoxyphenyl)amino]-6-methoxy-7-[(1-methylpiperidin-2-yl)methoxy]quinoline-3-carbonitrile], the 50% inhibitory concentration (IC50) came out at 56 nM.

In the case of `COc1cc(Nc2c(C#N)cnc3cc(OCC4CCCN(C)C4)c(OC)cc23)c(Cl)cc1Cl` (centres undefined) [4-[(2,4-dichloro-5-methoxyphenyl)amino]-6-methoxy-7-[(1-methylpiperidin-3-yl)methoxy]quinoline-3-carbonitrile], the IC50 turned out to be 4.6 nM.

In turn, `COc1cc(Nc2c(C#N)cnc3cc(OC4CCN(C)CC4)c(OC)cc23)c(Cl)cc1Cl` [4-[(2,4-dichloro-5-methoxyphenyl)amino]-6-methoxy-7-[(1-methylpiperidin-4-yl)oxy]quinoline-3-carbonitrile] gave an IC50 of 89 nM.
